Here are results for 42 compounds from PubChem BioAssay AID1996.

In brackets after ≈: the same amount, converted by molar mass. Some results are limits rather than exact numbers.

As usually defined, the kinetic solubility is the concentration staying in solution when a stock, usually in DMSO, is diluted into the medium.

The conditions of this series: buffer; pH 7.4; 200.0 µM.
In the case of `CSc1nsc(SCC(=O)N2CCCCC2)n1`, the kinetic solubility is > 43.4 µg/mL. In turn, `Cc1cc(NC(=O)Nc2c[nH]c(=O)[nH]c2=O)ccc1Br` showed a solubility (kinetic) of 1.8 µg/mL (≈ 5.31 µM). Consider `CC(NC(=O)c1cc2ccccc2oc1=O)c1ccc(O)cc1` (configuration not stated), for which the solubility (kinetic) turned out to be 27.3 µg/mL (≈ 88.3 µM).

Take `CC1CCCCN1C(=O)COc1ccc2ccc(=O)oc2c1` (configuration not stated): the kinetic solubility was 36.4 µg/mL (≈ 121 µM). `COc1ccc(S(N)(=O)=O)cc1C(=O)OCC(=O)Nc1sccc1C#N` displayed a kinetic solubility of 15.1 µg/mL (≈ 38.2 µM).

On to `CC(C)Sc1nc2ncnc(N)c2[nH]1`, for which the kinetic solubility is > 31.4 µg/mL. In the case of `COc1ccccc1CNC(=O)C1CCC(=O)N1C(C)C` (configuration not stated) it was > 43.6 µg/mL; in that of `CC1(C)CCC(=O)C=C1Nc1ccc(F)c(Cl)c1`, 38.2 µg/mL (≈ 143 µM); in that of `CN1C(C(=O)c2ccccc2)=C(N)c2ccccc2S1(=O)=O`, 40.9 µg/mL (≈ 130 µM). In the case of `C/C(Cl)=C\C[N+](C)(C)CC(=O)OCCc1ccccc1.[Br-]` it was > 56.5 µg/mL; in that of `CCCCn1c(NC(=O)c2ccco2)c(C(=O)OCC)c2nc3ccccc3nc21`, 4.9 µg/mL (≈ 12.1 µM). Compound `O/N=C/c1ccc(-c2ccccc2OC(F)(F)F)o1` displayed a kinetic solubility of 1.7 µg/mL (≈ 6.27 µM). In the case of `On1c(-c2ccccc2Cl)nc2ncccc21`, the solubility (kinetic) is > 36.9 µg/mL. In the case of `CC1CCN(C(=O)COC(=O)CCC(=O)c2ccc(F)cc2)CC1`, the kinetic solubility was > 50.3 µg/mL. As for `CN(C)CCn1c(N)nc2ccccc21`, the kinetic solubility is > 30.6 µg/mL. In the case of `CC(=O)c1cccc(OCC(=O)OCC(=O)Nc2cc(S(=O)(=O)N3CCCCC3)ccc2C)c1`, the solubility (kinetic) was 61.5 µg/mL (≈ 126 µM). As for `NCC(=O)CCC(=O)O`, the kinetic solubility was 18.6 µg/mL (≈ 142 µM). On to `Cc1ccc(Oc2ccc(C(F)(F)F)cc2[N+](=O)[O-])c([N+](=O)[O-])n1`, for which the kinetic solubility is 7.2 µg/mL (≈ 21 µM). In the case of `CCOCCCN1CC(C(=O)NCc2ccc3c(c2)OCO3)CC1=O` (configuration not stated) it was > 52.3 µg/mL; in that of `Cc1ccc(NC(=O)CSCC(=O)O)cc1`, > 35.9 µg/mL. Consider `N#C/C(=C\c1cccnc1)c1ccc([N+](=O)[O-])cc1`, for which the kinetic solubility was 13.1 µg/mL (≈ 52.1 µM). For the compound `CC(=O)Nc1ccc2nc(NC(=O)c3cccs3)sc2c1`, the kinetic solubility is 3.6 µg/mL (≈ 11.3 µM). In the case of `O=[N+]([O-])c1ccc2c(c1)nc1n2CCSC1` it was > 35.3 µg/mL; in that of `CCOc1ccc2nc(NC(=O)C3CCCO3)sc2c1` (configuration not stated), > 43.9 µg/mL. `Cc1ccccc1Oc1ccccc1N` returned a solubility (kinetic) of 3.9 µg/mL (≈ 19.6 µM). Under `O=C(Nc1ccc2c(c1)OCCO2)c1ccc(Cl)cc1` stands 2.1 µg/mL (≈ 7.25 µM); under `Cc1cccc(-n2c(C)c(-c3ccccc3)[nH]c2=S)c1`, 4.5 µg/mL (≈ 16 µM). Under `O=C(CN1CCCC1)Nc1cc(F)ccc1F` stands 35.1 µg/mL (≈ 146 µM). In the case of `COc1nc(NCCO)nc(Nc2cc(Cl)ccc2OC)n1` it was 2.5 µg/mL (≈ 7.67 µM); in that of `O=C(CN1C2CCCC1CC(NC(=O)c1ccccc1)C2)NC1CC1` (configuration not stated), > 51.2 µg/mL; in that of `COC(=O)c1ccc(C)c(NC(=O)CCCN2C(=O)CN(C)C2=O)c1`, > 52.1 µg/mL. `CSc1ncccc1C(=O)OCC(=O)N(C)C`: the kinetic solubility was > 38.1 µg/mL.

`C=CCNC(=S)N1CCC(Cc2ccccc2)CC1` came in with a kinetic solubility of 31.5 µg/mL (≈ 115 µM). In turn, `Cc1ccc(C(=O)NCC(=O)OCC(=O)NCC(F)(F)F)cc1` came in with a kinetic solubility of 47.1 µg/mL (≈ 142 µM). The compound `CC(C)CNC(=O)CC1Nc2ccccc2NC1=O` (configuration not stated) gave a solubility (kinetic) of 38.8 µg/mL (≈ 148 µM). Regarding `O=C(CSc1nnc(-c2ccco2)o1)Nc1ccccc1Cl`, the kinetic solubility is > 50.4 µg/mL. In the case of `Nc1ccc(NC(=O)CCN2CCOCC2)cc1` it was 34.8 µg/mL (≈ 140 µM); in that of `O=[N+]([O-])c1ccc(Nc2nccc(Cl)n2)cc1`, 1.4 µg/mL (≈ 5.59 µM). In the case of `O=C1CSC(=Nc2ccc(O)cc2)N1`, the solubility (kinetic) was > 31.2 µg/mL. Under `N#Cc1ccccc1OCC(=O)Nc1ccc(S(=O)(=O)N2CCOCC2)cc1` stands 6.9 µg/mL (≈ 17.2 µM); under `COc1ccccc1NS(=O)(=O)c1cc(NC(=O)COc2ccccc2F)ccc1N1CCOCC1`, 2.4 µg/mL (≈ 4.66 µM). Under `O=C(N/N=C/c1cccc(O)c1)c1ccccc1O` stands > 38.4 µg/mL.
